The text below walks through data of patent publication US9593108B2, “Compounds and methods for antiviral treatment” (PTC Therapeutics, Inc., priority 2009, dated 2017).

Series [1] relates to HCV replicon RNA (GenBank Accession No. AJ242654). In words: HCV Replicon Assay (replicon RNA reduction and/or Fluc reporter signal). Type of series: cell-based, Hepatitis C virus. The note with it: Hepatitis C virus, 72 h, replicon-containing cells cultured with test compound for up to 3 days. The procedure, abridged:
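IC50 values mostly reflect the drop in replicon RNA, though Fluc reporter signal may also be used. Compound incubated with cells carrying the bicistronic replicon for as long as 3 days; interferon served as positive control.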
A general note: Replicon systems follow genome replication, usually without infectious particles.

Each structure is given as a SMILES string. Where only a bound is given, the exact number is not on record here.

As usually defined, the IC50 is the concentration that inhibits the measured activity by half. Low values mean greater potency in that assay, high ones weaker potency in that assay. Broadly, the melting point is the temperature of the solid-liquid transition.

In the case of `C[C@H](NS(=O)(=O)c1ccc(-c2c(C#N)c3ncc(Cl)cc3n2C2CCCCC2)cc1)C(F)(F)F` [Cpd 287, 4-(6-chloro-3-cyano-1-cyclohexyl-1H-pyrrolo[3,2-b]pyridin-2-yl)-N-[(2S)-1,1,1-trifluoropropan-2-yl]benzenesulfonamide], the melting point was 300 to 305 °C. Also, in series [1], the IC50 was in the range of 0.5 to 2 µM.
With `CC(C)(C)S(=O)(=O)Nc1ccc(-c2c(C#N)c3ncc(Cl)cc3n2C2CCCCC2)cc1` [Cpd 288, N-[4-(6-chloro-3-cyano-1-cyclohexyl-1H-pyrrolo[3,2-b]pyridin-2-yl)phenyl]-2-methylpropane-2-sulfonamide], the melting point lay within 279 to 283 °C. For the same compound, the IC50 in series [1] is 0.5 to 2 µM.
On the same counts, the results for `Cc1cnc2c(c1)c(C#N)c(-c1cc(C)c(S(=O)(=O)N[C@@H](C)C(F)(F)F)cn1)n2C1CCC1` [Cpd 289, 6-(3-cyano-1-cyclobutyl-5-methyl-1H-pyrrolo[2,3-b]pyridin-2-yl)-4-methyl-N-[(2S)-1,1,1-trifluoropropan-2-yl]pyridine-3-sulfonamide] are 218 to 223 °C and under 0.5 µM.
`Cc1cc(S(=O)(=O)N[C@@H](C)C(F)(F)F)cnc1-c1c(C#N)c2cc(Cl)cnc2n1C1CCCC1` [Cpd 290, 6-(5-chloro-3-cyano-1-cyclopentyl-1H-pyrrolo[2,3-b]pyridin-2-yl)-5-methyl-N-[(2S)-1,1,1-trifluoropropan-2-yl]pyridine-3-sulfonamide] came in with a melting point of 240 to 245 °C. Further, the IC50 in series [1] is under 0.5 µM.
As for `Cc1cnc2c(c1)c(C#N)c(-c1ncc(S(=O)(=O)N[C@@H](C)C(F)(F)F)cc1C)n2C1CCC1` [Cpd 291, 6-(3-cyano-1-cyclobutyl-5-methyl-1H-pyrrolo[2,3-b]pyridin-2-yl)-5-methyl-N-[(2S)-1,1,1-trifluoropropan-2-yl]pyridine-3-sulfonamide], the melting point was 181 to 185 °C. In addition, the IC50 in series [1] was under 0.5 µM.
Compound `COc1cnc2c(c1)c(C#N)c(-c1ncc(S(=O)(=O)N[C@@H](C)C(F)(F)F)cc1C)n2C1CCC1` [Cpd 292, 6-(3-cyano-1-cyclobutyl-5-methoxy-1H-pyrrolo[2,3-b]pyridin-2-yl)-5-methyl-N-[(2S)-1,1,1-trifluoropropan-2-yl]pyridine-3-sulfonamide] came in with a melting point of 180 to 183 °C. The IC50 in series [1] was under 0.5 µM.
Compound `Cc1cnc2c(c1)c(C#N)c(-c1ccc(S(=O)(=O)NC(C)(C)C)cn1)n2C1CCC1` [Cpd 293, N-tert-butyl-6-(3-cyano-1-cyclobutyl-5-methyl-1H-pyrrolo[2,3-b]pyridin-2-yl)pyridine-3-sulfonamide] showed a melting point of 173 to 175 °C. Also, the IC50 in series [1] was under 0.5 µM.
With `C[C@H](NS(=O)(=O)c1ccc(-c2c(C#N)c3cc(O)cnc3n2C2CCCC2)nc1)C(F)(F)F` [Cpd 294, 6-(3-cyano-1-cyclopentyl-5-hydroxy-1H-pyrrolo[2,3-b]pyridin-2-yl)-N-[(2S)-1,1,1-trifluoropropan-2-yl]pyridine-3-sulfonamide], the melting point lay in the range of 221 to 223 °C. In series [1], this compound showed an IC50 of under 0.5 µM.
The corresponding values for `C[C@H](NS(=O)(=O)c1ccc(-c2c(C#N)c3cc(C(F)(F)F)cnc3n2CC2CC2)nc1)C(F)(F)F` [Cpd 295, 6-[3-cyano-1-(cyclopropylmethyl)-5-(trifluoromethyl)-1H-pyrrolo[2,3-b]pyridin-2-yl]-N-[(2S)-1,1,1-trifluoropropan-2-yl]pyridine-3-sulfonamide] are 193 to 195 °C and under 0.5 µM.
The corresponding values for `CC(C)(C)NS(=O)(=O)c1ccc(-c2c(C#N)c3cc(C(F)(F)F)cnc3n2CC2CC2)nc1` [Cpd 296, N-tert-butyl-6-[3-cyano-1-(cyclopropylmethyl)-5-(trifluoromethyl)-1H-pyrrolo[2,3-b]pyridin-2-yl]pyridine-3-sulfonamide] are 179 to 180 °C and under 0.5 µM.
The corresponding values for `CC(C)(C)NS(=O)(=O)c1ccc(-c2c(C#N)c3cc(C(F)(F)F)cnc3n2C2CCC2)nc1` [Cpd 297, N-tert-butyl-6-[3-cyano-1-cyclobutyl-5-(trifluoromethyl)-1H-pyrrolo[2,3-b]pyridin-2-yl]pyridine-3-sulfonamide] are 176 to 178 °C and under 0.5 µM.
Consider `Cc1cc(-c2c(C#N)c3cc(C(F)(F)F)cnc3n2C2CCC2)ncc1S(=O)(=O)N[C@@H](C)C(F)(F)F` [Cpd 298, 6-[3-cyano-1-cyclobutyl-5-(trifluoromethyl)-1H-pyrrolo[2,3-b]pyridin-2-yl]-4-methyl-N-[(2S)-1,1,1-trifluoropropan-2-yl]pyridine-3-sulfonamide], for which the melting point fell in the range of 166 to 171 °C. In addition, in series [1], the IC50 is under 0.5 µM.
`Cc1cnc2c(c1)c(C#N)c(-c1cccc(NS(=O)(=O)C(C)C)c1)n2C1CCC1` [Cpd 299, N-[3-(3-cyano-1-cyclobutyl-5-methyl-1H-pyrrolo[2,3-b]pyridin-2-yl)phenyl]propane-2-sulfonamide] displayed a melting point of 166 to 173 °C. In addition, the IC50 in series [1] was in the range of 2 to 5 µM.
The corresponding values for `C[C@H](NS(=O)(=O)c1ccc(-c2c(C#N)c3cc(C(F)(F)F)cnc3n2C2CCC2)cc1)C(F)(F)F` [Cpd 300, 4-[3-cyano-1-cyclobutyl-5-(trifluoromethyl)-1H-pyrrolo[2,3-b]pyridin-2-yl]-N-[(2S)-1,1,1-trifluoropropan-2-yl]benzenesulfonamide] are 218 to 220 °C and under 0.5 µM.
The corresponding values for `Cc1cc(S(=O)(=O)N[C@@H](C)C(F)(F)F)cnc1-c1c(C#N)c2cc(C(F)(F)F)cnc2n1C1CCC1` [Cpd 301, 6-[3-cyano-1-cyclobutyl-5-(trifluoromethyl)-1H-pyrrolo[2,3-b]pyridin-2-yl]-5-methyl-N-[(2S)-1,1,1-trifluoropropan-2-yl]pyridine-3-sulfonamide] are 190 to 194 °C and under 0.5 µM.
`N#Cc1c(-c2ccc(S(=O)(=O)NC3CCC3)cn2)n(C2CCC2)c2ncc(C(F)(F)F)cc12` [Cpd 302, 6-[3-cyano-1-cyclobutyl-5-(trifluoromethyl)-1H-pyrrolo[2,3-b]pyridin-2-yl]-N-cyclobutylpyridine-3-sulfonamide] yielded a melting point of 197 to 199 °C. Moreover, the IC50 in series [1] is under 0.5 µM.
On the same counts, the results for `C[C@H](NS(=O)(=O)c1ccc(-c2c(C#N)c3cc(C(F)(F)F)cnc3n2-c2ncccn2)nc1)C(F)(F)F` [Cpd 303, 6-[3-cyano-1-(pyrimidin-2-yl)-5-(trifluoromethyl)-1H-pyrrolo[2,3-b]pyridin-2-yl]-N-[(2S)-1,1,1-trifluoropropan-2-yl]pyridine-3-sulfonamide] are 213 to 215 °C and under 0.5 µM.
On the same counts, the results for `C[C@H](NS(=O)(=O)c1ccc(-c2c(C(N)=O)c3cc(C(F)(F)F)cnc3n2C2CCC2)nc1)C(F)(F)F` [Cpd 304, 1-cyclobutyl-5-(trifluoromethyl)-2-(5-{[(2S)-1,1,1-trifluoropropan-2-yl]sulfamoyl}pyridin-2-yl)-1H-pyrrolo[2,3-b]pyridine-3-carboxamide] are 219 to 221 °C and under 0.5 µM.
The corresponding values for `C[C@H](NS(=O)(=O)c1ccc(-c2c(C#N)c3cc(S(C)(=O)=O)cnc3n2C2CCCC2)nc1)C(F)(F)F` [Cpd 305, 6-[3-cyano-1-cyclopentyl-5-(methylsulfonyl)-1H-pyrrolo[2,3-b]pyridin-2-yl]-N-[(2S)-1,1,1-trifluoropropan-2-yl]pyridine-3-sulfonamide] are 260 to 261 °C and under 0.5 µM.
In the case of `C[C@H](NS(=O)(=O)c1ccc(-c2c(C#N)c3cc(Cl)cnc3n2-c2ccccn2)nc1)C(F)(F)F` [Cpd 306, 6-[5-chloro-3-cyano-1-(pyridin-2-yl)-1H-pyrrolo[2,3-b]pyridin-2-yl]-N-[(2S)-1,1,1-trifluoropropan-2-yl]pyridine-3-sulfonamide], the melting point is 179 to 181 °C. The IC50 in series [1] was under 0.5 µM.
Regarding `C[C@H](NS(=O)(=O)c1ccc(-c2c(C#N)c3cc(Cl)cnc3n2-c2cnccn2)nc1)C(F)(F)F` [Cpd 307, 6-[5-chloro-3-cyano-1-(pyrazin-2-yl)-1H-pyrrolo[2,3-b]pyridin-2-yl]-N-[(2S)-1,1,1-trifluoropropan-2-yl]pyridine-3-sulfonamide], the melting point lay within 247 to 249 °C. Moreover, the IC50 in series [1] is under 0.5 µM.
On to `C[C@H](NS(=O)(=O)c1ccc(-c2c(C#N)c3cc(Cl)cnc3n2-c2ccccc2)nc1)C(F)(F)F` [Cpd 308, 6-(5-chloro-3-cyano-1-phenyl-1H-pyrrolo[2,3-b]pyridin-2-yl)-N-[(2S)-1,1,1-trifluoropropan-2-yl]pyridine-3-sulfonamide], for which the melting point was in the range of 211 to 213 °C. For the same compound, the IC50 in series [1] is under 0.5 µM.
On the same counts, the results for `COc1cnc2c(c1)c(C#N)c(-c1ccc(S(=O)(=O)NC3CCC3)cn1)n2C1CCC1` [Cpd 309, 6-(3-cyano-1-cyclobutyl-5-methoxy-1H-pyrrolo[2,3-b]pyridin-2-yl)-N-cyclobutylpyridine-3-sulfonamide] are 203 to 207 °C and under 0.5 µM.
As for `COc1cnc2c(c1)c(C#N)c(-c1ccc(S(=O)(=O)NC3CC3)cn1)n2C1CCC1` [Cpd 310, 6-(3-cyano-1-cyclobutyl-5-methoxy-1H-pyrrolo[2,3-b]pyridin-2-yl)-N-cyclopropylpyridine-3-sulfonamide], the melting point lay in the range of 161 to 162 °C. The half-inhibitory concentration (IC50) in series [1] was under 0.5 µM.
The compound `COc1cnc2c(c1)c(C#N)c(-c1ccc(S(=O)(=O)NC3(C)CC3)cn1)n2C1CCC1` [Cpd 311, 6-(3-cyano-1-cyclobutyl-5-methoxy-1H-pyrrolo[2,3-b]pyridin-2-yl)-N-(1-methylcyclopropyl)pyridine-3-sulfonamide] registered a melting point of 179 to 181 °C. This compound showed a half-maximal inhibitory concentration (IC50) in series [1] of under 0.5 µM.
